According to patent publication US10087188B2, “Benzamide imidazopyrazine Btk inhibitors” (MERCK SHARP & DOHME CORP., priority 2014, dated 2018):
pIC50: −log10 of the molar value.

Columns and labels:
HeLa cells = test: [3H] Adenosine uptake assay; assay type: cell-based; conditions: Homo sapiens, HeLa, accumulation of tritiated adenosine into HeLa cells; compound concentration range 10 μM to 0.032 nM; read-out: ADU inhibition IC50 (adenosine uptake inhibition potency)
Outline: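 Accumulation of tritiated adenosine in adherent HeLa cells, detected by scintillant-plate coincidence counting, gives IC50 via 4-parameter robust fit. Compound (constant 0.25% DMSO) applied 30 min ahead, then 60 min radiolabel exposure (added from 500 nM solution), ambient conditions, HBSS with 5% FBS.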

[1] = target: BTK enzyme (recombinant full-length BTK, hBTK) (Homo sapiens (Human), UniProt Q06187); test: Btk enzyme activity assay, LANCE TR-FRET; assay type: biochemical; conditions: 50 pM hBTK, 2 μM biotin-A5-peptide, 25 μM ATP; 60 minute compound & enzyme incubation; read-out: BTK binding IC50
Sequence of BTK enzyme (recombinant full-length BTK, hBTK) (Q06187 whole entry): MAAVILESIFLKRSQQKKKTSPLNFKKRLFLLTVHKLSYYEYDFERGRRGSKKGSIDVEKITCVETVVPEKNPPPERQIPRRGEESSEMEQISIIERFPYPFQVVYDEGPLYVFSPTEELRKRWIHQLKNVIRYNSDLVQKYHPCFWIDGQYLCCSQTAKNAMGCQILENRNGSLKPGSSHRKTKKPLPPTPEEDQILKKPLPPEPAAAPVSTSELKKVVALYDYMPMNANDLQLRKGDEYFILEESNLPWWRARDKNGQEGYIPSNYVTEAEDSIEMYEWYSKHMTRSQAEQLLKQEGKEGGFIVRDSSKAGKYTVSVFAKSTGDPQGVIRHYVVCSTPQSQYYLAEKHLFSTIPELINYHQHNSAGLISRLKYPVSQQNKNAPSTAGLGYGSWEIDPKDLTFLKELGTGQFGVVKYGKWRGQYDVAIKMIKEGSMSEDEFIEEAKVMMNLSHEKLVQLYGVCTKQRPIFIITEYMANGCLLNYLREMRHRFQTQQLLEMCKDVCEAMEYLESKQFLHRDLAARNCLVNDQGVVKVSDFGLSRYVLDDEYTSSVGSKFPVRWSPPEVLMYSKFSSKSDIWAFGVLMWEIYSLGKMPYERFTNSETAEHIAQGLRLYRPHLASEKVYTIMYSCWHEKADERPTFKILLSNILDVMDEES
Experimental: Btk Enzyme Activity Assay Methods
BTK enzymatic activity was determined with the LANCE (Lanthanide Chelate Excite) TR-FRET (Time-resolved fluorescence resonance energy transfer) assay. […] After 60 minutes incubation with detection reagents, reaction plates were read on a PerkinElmer EnVision plate reader using standard TR-FRET protocol.

Row | pIC50 (HeLa cells) | pIC50 [1] | SMILES
1 | 6.18 | 7.88 | CC(C)(C(=O)O)N1CCO[C@@H](c2nc(-c3ccc(C(=O)Nc4cc(C(F)(F)F)ccn4)cc3)c3c(N)nccn23)C1 [Example 183, 2-{(2R)-2-[8-amino-1-(4-{[4-(trifluoromethyl)pyridin-2-yl]carbamoyl}phenyl)imidazo [1,5-a]pyrazin-3-yl]morpholin-4-yl}-2-methylpropanoic acid]
2 | 5.37 | 8.12 | C[C@@]1(C(=O)O)CCCN(c2nc(-c3ccc(C(=O)Nc4cc(C(F)(F)F)ccn4)cc3)c3c(N)nccn23)C1 [Example 41, (3R)-1-[8-amino-1-(4-{[4-(trifluoromethyl)pyridin-2-yl]carbamoyl}phenyl)imidazo[1,5-a]pyrazin-3-yl]-3-methylpiperidine-3-carboxylic acid]
3 | 5.00 | 8.85 | CCOc1cc(C(=O)Nc2cc(C(F)(F)F)ccn2)ccc1-c1nc([C@]2(C)CC[C@@](C)(C(=O)O)C2)n2ccnc(N)c12 [Example 85, (1R,3R)-3-[8-amino-1-(2-ethoxy-4-{[4-(trifluoromethyl)pyridin-2-yl]carbamoyl}phenyl)imidazo[1,5-a]pyrazin-3-yl]-1,3-dimethylcyclopentane carboxylic acid]
4 | 5.23 | 8.49 | COc1cc(C(=O)Nc2cc(C(F)(F)F)ccn2)ccc1-c1nc([C@H]2CN(C3CC(C(=O)O)C3)[C@@H](C)CO2)n2ccnc(N)c12 (stereo partly drawn) [Example 185, 3-{(2R,5S)-2-[8-amino-1-(2-methoxy-4-{[4-(trifluoromethyl)pyridin-2-yl]carbamoyl}phenyl)imidazo [1,5-a]pyrazin-3-yl]-5-methylmorpholin-4-yl}cyclobutanecarboxylic acid]
5 | 5.00 | 6.12 | Nc1nccn2c([C@@H]3C[C@@H]3C(=O)O)nc(-c3ccc(C(=O)Nc4cc(C(F)(F)F)ccn4)cc3)c12 [Example 167, (1S,2R)-2-[8-amino-1-(4-{[4-(trifluoromethyl)pyridin-2-yl]carbamoyl}phenyl)imidazo[1,5-a]pyrazin-3-yl]cyclopropane-carboxylic acid]
6 | 5.01 | 7.86 | CCOc1cc(C(=O)Nc2cc(C(F)(F)F)ccn2)ccc1-c1nc([C@]2(C)CC[C@](C)(C(=O)O)C2)n2ccnc(N)c12 [Example 87, (1S,3R)-3-[8-amino-1-(2-ethoxy-4-{[4-(trifluoromethyl)pyridin-2-yl]carbamoyl}phenyl)imidazo[1,5-a]pyrazin-3-yl]-1,3-dimethylcyclopentane carboxylic acid]
7 | 5.00 | 7.62 | CCOc1cc(C(=O)Nc2cc(C(F)(F)F)n(C)n2)ccc1-c1nc([C@@H]2CC[C@](C(=O)O)(C(C)C)C2)n2ccnc(N)c12 [Example 59, (1R,3R)-3-[8-amino-1-(2-ethoxy-4-{[1-methyl-5-(trifluoromethyl)-1H-pyrazol-3-yl]carbamoyl}phenyl)imidazo[1,5-a]pyrazin-3-yl]-1-(1-methylethyl) cyclopentane-carboxylic acid]
8 | 5.00 | 9.12 | CCOc1cc(C(=O)Nc2cc(C3CC3)ccn2)cc(F)c1-c1nc(C2(C)CCC(C)(C(=O)O)CC2)n2ccnc(N)c12 (stereo not drawn) [Example 131, 4-(8-amino-1-{4-[(4-cyclopropylpyridin-2-yl)carbamoyl]-2-ethoxy-6-fluorophenyl}imidazo [1,5-a]pyrazin-3-yl)-1,4-dimethylcyclohexane-carboxylic acid]
9 | 6.56 | 9.72 | Nc1nccn2c(C34CCC(C(=O)O)(CC3)CC4)nc(-c3ccc(C(=O)Nc4cc(C5CC5)ccn4)cc3)c12 [Example 169, 4-(8-amino-1-{4-[(4-cyclopropylpyridin-2-yl)carbamoyl]phenyl}imidazo[1,5-a]pyrazin-3-yl)bicyclo[2.2.2] octane-1-carboxylic acid]
10 | 5.23 | 8.66 | Nc1nccn2c([C@@H]3CCN[C@H](C(=O)O)C3)nc(-c3ccc(C(=O)Nc4cc(C(F)(F)F)ccn4)cc3)c12 [Example 32, (2S,4R)-4-[8-amino-1-(4-{[4-(trifluoromethyl)pyridin-2-yl]carbamoyl}phenyl)imidazo[1,5-a]pyrazin-3-yl]piperidine-2-carboxylic acid]
11 | 5.00 | 9.04 | Nc1nccn2c(N3CC[C@H](C(=O)O)C3)nc(-c3ccc(C(=O)Nc4cc(C(F)(F)F)ccn4)cc3)c12 [Example 39, (3S)-1-[8-amino-1-(4-{[4-(trifluoromethyl)pyridin-2-yl]carbamoyl}phenyl)imidazo[1,5-a]pyrazin-3-yl]pyrrolidine-3-carboxylic acid]
12 | 5.00 | 8.89 | COc1cc(C(=O)Nc2cc(C(F)(F)F)ccn2)cc(F)c1-c1nc(C2(C)CCC(C)(C(=O)O)CC2)n2ccnc(N)c12 (stereo not drawn) [Example 127, 4-[8-amino-1-(2-fluoro-6-methoxy-4-{[4-(trifluoromethyl)pyridin-2-yl]carbamoyl}phenyl)imidazo[1,5-a]pyrazin-3-yl]-1,4-dimethylcyclohexane-carboxylic acid]
13 | 5.00 | 8.36 | CCOc1cc(C(=O)Nc2cc(C(F)(F)F)ccn2)ccc1-c1nc(C2CCC(C)(C(=O)O)CC2)n2c(Cl)cnc(N)c12 (stereo not drawn) [Example 165, 4-[8-amino-5-chloro-1-(2-ethoxy-4-{[4-(trifluoromethyl)pyridin-2-yl]carbamoyl}phenyl)imidazo[1,5-a]pyrazin-3-yl]-1-methylcyclohexane-carboxylic acid]
14 | 5.00 | 8.74 | CCOc1cc(C(=O)Nc2cc(C(F)(F)F)ccn2)ccc1-c1nc([C@H]2CCC[C@](C(=O)O)(C(C)C)C2)n2ccnc(N)c12 [Example 90, (1R,3S)-3-[8-amino-1-(2-ethoxy-4-{[4-(trifluoromethyl)pyridin-2-yl]carbamoyl}phenyl)imidazo[1,5-a]pyrazin-3-yl]-1-(1-methylethyl) cyclohexane-carboxylic acid]
15 | 5.20 | 9.18 | CCOc1cc(C(=O)Nc2cc(C(F)(F)F)ccn2)ccc1-c1nc(C2(C)CCC(C)(C(=O)O)C2)n2ccnc(N)c12 (stereo not drawn) [Example 22, 3-(8-amino-1-(2-ethoxy-4-((4-(trifluoromethyl)pyridin-2-yl)carbamoyl)phenyl)imidazo[1,5-a]pyrazin-3-yl)-1,3-dimethylcyclopentanecarboxylic acid]
16 | 5.94 | 7.99 | CN1CC[C@H](c2nc(-c3ccc(C(=O)Nc4cc(C(F)(F)F)ccn4)cc3)c3c(N)nccn23)C[C@@H]1C(=O)O [Example 83, (2R.4S)-4-[8-amino-1-(4-{[4-(trifluoromethyl)pyridin-2-yl]carbamoyl}phenyl)imidazo[1,5-a]pyrazin-3-yl]-1-methylpiperidine-2-carboxylic acid]
17 | 5.83 | 9.42 | Nc1nccn2c(C34CCC(C(=O)O)(CC3)CC4)nc(-c3ccc(C(=O)Nc4cc(C(F)(F)F)ccn4)cc3Cl)c12 [Example 151, 4-[8-amino-1-(2-chloro-4-{[4-(trifluoromethyl)pyridin-2-yl]carbamoyl}phenyl)imidazo[1,5-a]pyrazin-3-yl]bicyclo[2.2.2] octane-1-carboxylic acid]
18 | 5.00 | 8.62 | Nc1nccn2c(-c3ccc(C(=O)O)o3)nc(-c3ccc(C(=O)Nc4cc(C(F)(F)F)ccn4)cc3)c12 [Example 28, 5-[8-amino-1-(4-{[4-(trifluoromethyl)pyridin-2-yl]carbamoyl}phenyl)imidazo[1,5-a]pyrazin-3-yl]furan-2-carboxylic acid]
